Experimental data reported in patent US11667643B2, “RIP1K inhibitors” (priority 2020, dated 2023).
Where two headings read alike, the source gives them in different places.

Assays:
RIPK1 = RIPK1 (Homo sapiens (Human), UniProt Q13546); assay: biochemical; format: biochemical
Summary of the method: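 ADP-Glo luminescent assay of RIPK1 at 31 ng/well in Tris-HCl pH 7.4 buffer with MgCl2, BSA, 100 μM DTT and 4 mM MnCl2; compounds run in duplicate. Kinase reaction 30 min at 30 °C, then ADP-Glo 40 min and detection reagent 30 min at room temperature; ADP formation read as luminescence.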

U937 cells = assay: U937 cell necroptosis assay (TNFa + zVAD, CellTiter-Glo recovery), functional human RIP1 assay; format: cell-based; conditions: Homo sapiens, U-937, 18 h, read-out: U937 Zvad TNF CTG Recovery, U937, TNFa + zVAD (IC50), U937 cells, zVAD-fmk, TNFa 2 ng/mL, 18 hours, CellTiter-Glo
Summary of the method: (§1)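 Human U937 cells (50K/well, 60 uM zVAD-fmk in plating medium) and murine L929 cells (10K/well, medium replaced with 40 uM zVAD-fmk) were pre-incubated with compound 1 h at 37 °C. TNFa was then added at a final 2 ng/mL. Viability by CellTiter-Glo luminescence after 18 h.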

L929 cells = assay: L929 cell necroptosis assay (TNFa + zVAD, CellTiter-Glo recovery), functional murine RIP1 assay; format: cell-based; conditions: Mus musculus, L929, 18 h, read-out: L929-CTG-recovery, L929, TNFa + zVAD (IC50), L929 cells, zVAD-fmk, TNFa 2 ng/mL, 18 hours, CellTiter-Glo
Summary of the method: as §1

[1] = RIPK1 enzyme 31 ng/well, 30° C. for 30 minutes, luminescence, read-out: RIPK1 ADP-Glo Kinase (IC50)

Sequence of RIPK1 (Q13546 whole entry, species assumed): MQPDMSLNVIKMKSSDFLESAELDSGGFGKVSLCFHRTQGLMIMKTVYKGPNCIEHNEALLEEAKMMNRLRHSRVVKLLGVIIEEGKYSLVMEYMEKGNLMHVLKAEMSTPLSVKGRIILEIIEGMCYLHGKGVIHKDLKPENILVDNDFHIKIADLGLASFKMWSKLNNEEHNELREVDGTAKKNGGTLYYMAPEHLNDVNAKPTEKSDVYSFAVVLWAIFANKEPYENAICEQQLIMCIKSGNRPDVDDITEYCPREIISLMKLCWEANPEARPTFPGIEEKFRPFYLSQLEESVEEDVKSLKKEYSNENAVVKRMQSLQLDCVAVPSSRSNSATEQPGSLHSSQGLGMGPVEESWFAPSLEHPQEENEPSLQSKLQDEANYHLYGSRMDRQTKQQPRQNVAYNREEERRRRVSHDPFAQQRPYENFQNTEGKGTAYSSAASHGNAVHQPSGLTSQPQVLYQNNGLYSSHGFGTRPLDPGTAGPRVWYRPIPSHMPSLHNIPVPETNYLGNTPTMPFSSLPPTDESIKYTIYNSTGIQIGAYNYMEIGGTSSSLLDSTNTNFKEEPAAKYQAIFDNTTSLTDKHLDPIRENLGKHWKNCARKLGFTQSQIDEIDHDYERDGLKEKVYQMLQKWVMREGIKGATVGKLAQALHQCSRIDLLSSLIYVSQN

Row | Compound | IC50 (RIPK1; [1]) | IC50 (U937 cells) | IC50 (L929 cells) | IC50 (RIPK1)
1 | O=C(N[C@H]1COc2ccccc2-n2nnnc21)c1ncn(Cc2c(Cl)cccc2Cl)n1 [Compound I-11, (R)-1-(2,6-Dichlorobenzyl)-N-(4,5-dihydrobenzo[6]tetrazolo[1,5-d][1,4]oxazepin-4-yl)-1H-1,2,4-triazole-3-carboxamide] | 0.0178 µM | 0.0343 µM | 10000 µM | –
2 | O=C(N[C@H]1COc2ccccc2-n2nnnc21)c1ncn(Cc2ccccc2F)n1 [Compound I-21, (R)—N-(4,5-Dihydrobenzo[b]tetrazolo[1,5-d][1,4]oxazepin-4-yl)-1-(2-fluorobenzyl)-1H-1,2,4-triazole-3-carboxamide] | 0.0567 µM | 0.0625 µM | 160 µM | –
3 | O=C(N[C@H]1CSc2ccccc2-n2nnnc21)c1ncn(Cc2ccc(F)cc2)n1 [Compound I-22, (R)—N-(4,5-Dihydrobenzo[b]tetrazolo[1,5-d][1,4]thiazepin-4-yl)-1-(4-fluorobenzyl)-1H-1,2,4-triazole-3-carboxamide] | 0.0321 µM | 0.002 µM | 2.48 µM | –
4 | O=C(N[C@H]1CSc2ccccc2-n2nnnc21)c1cc(Cc2ccccc2)on1 [Compound I-23, (R)-5-Benzyl-N-(4,5-dihydrobenzo[b]tetrazolo[1,5-d][1,4]thiazepin-4-yl)isoxazole-3-carboxamide] | 0.0429 µM | 0.101 µM | 10000 µM | –
5 | O=C(N[C@H]1CSc2ccccc2-n2nnnc21)c1n[nH]c(Cc2ccccc2)n1 [Compound I-24, (R)-5-Benzyl-N-(4,5-dihydrobenzo[b]tetrazolo[1,5-d][1,4]thiazepin-4-yl)-1H-1,2,4-triazole-3-carboxamide] | 0.0272 µM | 0.0144 µM | 2.14 µM | –
6 | O=C(N[C@H]1CS(=O)(=O)c2ccccc2-n2nnnc21)c1cc(Cc2ccccc2)on1 [Compound I-25, (R)-5-Benzyl-N-(6,6-dioxido-4,5-dihydrobenzo[b]tetrazolo[1,5-d][1,4]thiazepin-4-yl)isoxazole-3-carboxamide] | 0.51 µM | 28.6 µM | 10000 µM | –
7 | O=C(N[C@H]1C[S+]([O-])c2ccccc2-n2nnnc21)c1cc(Cc2ccccc2)on1 (stereo partly drawn) [Compound I-26, 5-Benzyl-N-((4R)-6-oxido-4,5-dihydrobenzo[b]tetrazolo[1,5-d][1,4]thiazepin-4-yl)isoxazole-3-carboxamide] | 1.37 µM | 0.176 µM | 10000 µM | –
8 | O=C(N[C@H]1CSc2ccccc2-n2c1noc2=O)c1cc(Cc2ccccc2)on1 [Compound I-28, 5-Benzyl-N-((4R)-1-oxo-4,5-dihydro-1H-benzo[b][1,2,4]oxadiazolo[4,3-d][1,4]thiazepin-4-yl)isoxazole-3-carboxamide] | 0.0679 µM | 0.0165 µM | 10.7 µM | –
9 | O=C(N[C@H]1CSc2ccccc2-n2nnnc21)c1n[nH]c(Cc2ccc(F)cc2)n1 [Compound I-30, (R)—N-(4,5-Dihydrobenzo[&]tetrazolo[1,5-d][1,4]thiazepin-4-yl)-5-(4-fluorobenzyl)-1H-1,2,4-triazole-3-carboxamide] | 0.0186 µM | 0.0679 µM | 10000 µM | –
10 | O=C(N[C@H]1CSc2ccccc2-n2c1noc2=O)c1n[nH]c(Cc2ccc(F)cc2)n1 [Compound I-31, 5-(4-Fluorobenzyl)-N-((4R)-1-oxo-4,5-dihydro-1H-benzo[6][1,2,4]oxadiazolo[4,3-d][1,4]thiazepin-4-yl)-1H-1,2,4-triazole-3-carboxamide] | 0.0158 µM | 0.014 µM | 5010 µM | –
11 | O=C(N[C@H]1CSc2ccccc2-n2c1noc2=O)c1ncn(Cc2ccc(F)cc2)n1 [Compound I-32, 1-(4-Fluorobenzyl)-N-((4R)-1-oxo-4,5-dihydro-1H-benzo[b][1,2,4]oxadiazolo[4,3-d][1,4]thiazepin-4-yl)-1H-1,2,4-triazole-3-carboxamide] | 0.0133 µM | 0.0016 µM | 0.674 µM | –
12 | O=C(N[C@H]1CSc2ccccc2-n2c1noc2=O)c1n[nH]c(Cc2ccccc2)n1 [Compound I-33, 5-Benzyl-N-((4R)-1-oxo-4,5-dihydro-1H-benzo[b][1,2,4]oxadiazolo[4,3-d][1,4]thiazepin-4-yl)-1H-1,2,4-triazole-3-carboxamide] | 0.0125 µM | 0.0056 µM | 5.16 µM | –
13 | O=C(N[C@H]1COc2ccccc2-n2c1noc2=O)c1n[nH]c(Cc2ccccc2)n1 [Compound I-41, 5-Benzyl-N-((4R)-1-oxo-4,5-dihydro-1H-benzo[6][1,2,4]oxadiazolo[4,3-d][1,4]oxazepin-4-yl)-1H-1,2,4-triazole-3-carboxamide] | 0.058 µM | 0.0481 µM | 10000 µM | –
14 | O=C(N[C@H]1COc2ccccc2-n2c1noc2=O)c1ncn(Cc2c(Cl)cccc2Cl)n1 [Compound I-42, 1-(2,6-Dichlorobenzyl)-N-((4R)-1-oxo-4,5-dihydro-1H-benzo[&][1,2,4]oxadiazolo[4,3-d][1,4]oxazepin-4-yl)-1H-1,2,4-triazole-3-carboxamide] | 0.0263 µM | 0.041 µM | 10000 µM | –
15 | O=C(N[C@H]1COc2ccccc2-n2c1noc2=O)c1cc(Cc2ccccc2)on1 [Compound I-43, 5-benzyl-N-((4R)-1-oxo-4,5-dihydro-1H-benzo[b][1,2,4]oxadiazolo[4,3-d][1,4]oxazepin-4-yl)isoxazole-3-carboxamide] | 0.11 µM | 0.205 µM | 10000 µM | –
16 | O=C(N[C@H]1COc2ncccc2-n2c1noc2=O)c1cc(Cc2ccccc2)on1 [Compound I-46, 5-Benzyl-N-((4R)-1-oxo-4,5-dihydro-1H-[1,2,4]oxadiazolo[4,3-d]pyrido[2,3-b][1,4]oxazepin-4-yl)isoxazole-3-carboxamide] | 4.41 µM | 39.4 µM | 10000 µM | –
17 | O=C(N[C@H]1COc2ccccc2-n2c1noc2=O)c1n[nH]c(Cc2ccc(F)cc2F)n1 [Compound I-49, 5-(2,4-Difluorobenzyl)-N-((4R)-1-oxo-4,5-dihydro-1H-benzo[b][1,2,4]oxadiazolo[4,3-d][1,4]oxazepin-4-yl)-1H-1,2,4-triazole-3-carboxamide] | 0.347 µM | 0.717 µM | 10000 µM | –
18 | O=C(N[C@H]1COc2ccccc2-n2c1noc2=O)c1n[nH]c(Cc2ccc(F)cc2)n1 [Compound I-50, 5-(4-Fluorobenzyl)-N-((4R)-1-oxo-4,5-dihydro-1H-benzo[6][1,2,4]oxadiazolo[4,3-d][1,4]oxazepin-4-yl)-1H-1,2,4-triazole-3-carboxamide] | 0.109 µM | 0.246 µM | 10000 µM | –
19 | O=C(N[C@H]1COc2ccccc2-n2c1noc2=O)c1cc(Oc2ccccc2)ccn1 [Compound I-53, N-((4R)-1-Oxo-4,5-dihydro-1H-benzo[6][1,2,4]oxadiazolo[4,3-d][1,4]oxazepin-4-yl)-4-phenoxypicolinamide] | 0.0204 µM | 0.0462 µM | 30.7 µM | –
20 | CC(C)(O)C#Cc1ccc2c(c1)-n1nnnc1[C@@H](NC(=O)c1n[nH]c(Cc3ccccc3)n1)CO2 [Compound I-69, (R)-5-Benzyl-N-(9-(3-hydroxy-3-methylbut-1-yn-1-yl)-4,5-dihydrobenzo[b]tetrazolo[1,5-d][1,4]oxazepin-4-yl)-1H-1,2,4-triazole-3-carboxamide] | 0.0601 µM | 0.787 µM | 10000 µM | –
21 | O=C(N[C@H]1COc2ccccc2-n2c1noc2=O)c1cc(O)n(Cc2ccccc2)n1 [Compound I-75, 1-Benzyl-5-hydroxy-N-((4R)-1-oxo-4,5-dihydro-1H-benzo[b][1,2,4]oxadiazolo[4,3-d][1,4]oxazepin-4-yl)-1H-pyrazole-3-carboxamide] | 10.6 µM | 10000 µM | 10000 µM | –
22 | O=C1c2nn(Cc3ccccc3)c(Cl)c2CN1[C@H]1COc2ccccc2-n2nnnc21 [Compound I-79] | 0.652 µM | 16.1 µM | 10000 µM | –
23 | O=C(N[C@H]1CCc2ccc(N3CCC4(CCOCC4)CC3)cc2-n2ccnc21)c1n[nH]c(Cc2ccccc2)n1 [Compound I-83, (S)—N-(9-(3-Oxa-9-azaspiro[5.5]undecan-9-yl)-5,6-dihydro-4H-benzo[f]imidazo[1,2-a]azepin-4-yl)-5-benzyl-1H-1,2,4-triazole-3-carboxamide] | 0.0435 µM | 0.0043 µM | 2.12 µM | –
24 | O=C(N[C@H]1CCc2ccc(N3CC4(CCOCC4)C3)cc2-n2ccnc21)c1n[nH]c(Cc2ccccc2)n1 [Compound I-86, (S)—N-(9-(7-Oxa-2-azaspiro[3.5]nonan-2-yl)-5,6-dihydro-4H-benzo[f]imidazo[1,2-a]azepin-4-yl)-5-benzyl-1H-1,2,4-triazole-3-carboxamide] | 0.067 µM | 0.0119 µM | 3.45 µM | –
25 | O=C(N[C@H]1COc2ccc(N3CC4(CCOCC4)C3)cc2-n2ccnc21)c1n[nH]c(Cc2ccccc2)n1 [Compound I-87, (R)—N-(9-(7-Oxa-2-azaspiro[3.5]nonan-2-yl)-4,5-dihydrobenzo[b]imidazo[1,2-d][1,4]oxazepin-4-yl)-5-benzyl-1H-1,2,4-triazole-3-carboxamide] | – | 0.0156 µM | 10000 µM | 0.0682 µM
